How the values were obtained:
[1] = target: TASK-1 (Homo sapiens, UniProt O14649, T199A); experiment: two-electrode voltage clamp, Xenopus oocytes; assay type: cell-based; conditions: read-out: % inhibition at 400 nM
[2] = target: TASK-1 (Homo sapiens, UniProt O14649, T93A); experiment: two-electrode voltage clamp, Xenopus oocytes; assay type: cell-based; conditions: read-out: % inhibition at 400 nM
Chain of TASK-1 (Homo sapiens, UniProt O14649, T93A) (O14649 whole entry T93A): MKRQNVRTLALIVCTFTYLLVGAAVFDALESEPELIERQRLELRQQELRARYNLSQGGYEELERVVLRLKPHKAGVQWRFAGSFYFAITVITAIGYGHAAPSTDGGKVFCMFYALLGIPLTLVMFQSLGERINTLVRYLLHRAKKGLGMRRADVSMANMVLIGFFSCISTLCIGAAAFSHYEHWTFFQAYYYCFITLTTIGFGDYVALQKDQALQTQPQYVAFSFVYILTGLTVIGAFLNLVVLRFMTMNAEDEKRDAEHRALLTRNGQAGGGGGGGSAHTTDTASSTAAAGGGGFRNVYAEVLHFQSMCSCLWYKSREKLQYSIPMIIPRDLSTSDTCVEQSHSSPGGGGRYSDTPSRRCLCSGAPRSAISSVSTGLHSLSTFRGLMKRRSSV

Chain of TASK-1 (Homo sapiens, UniProt O14649, T199A) (O14649 whole entry T199A): as the sequence (O14649 whole entry T93A) above, with A93T, T199A counted along it

COc1ccc(CC(=O)NCc2ccccc2-c2ccccc2C(=O)NCc2ccc(F)cc2F)cc1 [A1899] was tested, and the inhibition at 0.4 µM [1] was 36.4 ± 6.4% and the inhibition at 0.4 µM [2] was 26.4 ± 6.4%.
